Source: PubChem BioAssay (NCI)
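1) Cells in 96-well plates. 2) Compound, 48 h, 5 concentrations. 3) Linear interpolation between surrounding doses. 4) Unreached endpoint = highest concentration. At the TGI there is no net growth.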

Columns and labels:
Test in all cases: NCI tumour cell line growth inhibition, 48 h
RXF 393 renal = tested on: RXF 393 renal
SNB-19 CNS = tested on: SNB-19 CNS
MOLT-4 leukemia = tested on: MOLT-4 leukemia
M19-MEL melanoma = tested on: M19-MEL melanoma
K-562 leukemia = tested on: K-562 leukemia
U251 CNS = tested on: U251 CNS
SNB-78 CNS = tested on: SNB-78 CNS
SK-MEL-28 melanoma = tested on: SK-MEL-28 melanoma
LXFL 529 NSCLC = tested on: LXFL 529 NSCLC
NCI-H460 lung = tested on: NCI-H460 lung
NCI-H23 lung = tested on: NCI-H23 lung
SN12C renal = tested on: SN12C renal
786-0 renal = tested on: 786-0 renal
SF-539 CNS = tested on: SF-539 CNS
NCI-H522 lung = tested on: NCI-H522 lung
COLO 205 colon = tested on: COLO 205 colon
HT29 colon = tested on: HT29 colon
M14 melanoma = tested on: M14 melanoma
SW-620 colon = tested on: SW-620 colon
SK-MEL-5 melanoma = tested on: SK-MEL-5 melanoma
MALME-3M melanoma = tested on: MALME-3M melanoma
SR leukemia = tested on: SR leukemia
SK-OV-3 ovarian = tested on: SK-OV-3 ovarian
DMS 273 small cell lung = tested on: DMS 273 small cell lung
KM12 colon = tested on: KM12 colon
RXF-631 renal = tested on: RXF-631 renal
DLD-1 colon = tested on: DLD-1 colon
A549 NSCLC = tested on: A549 NSCLC
HOP-92 NSCLC = tested on: HOP-92 NSCLC
TK-10 renal = tested on: TK-10 renal
SNB-75 CNS = tested on: SNB-75 CNS
HCT-15 colon = tested on: HCT-15 colon
UACC-257 melanoma = tested on: UACC-257 melanoma
NCI-H226 lung = tested on: NCI-H226 lung
OVCAR-8 ovarian = tested on: OVCAR-8 ovarian
CCRF-CEM leukemia = tested on: CCRF-CEM leukemia
SF-295 CNS = tested on: SF-295 CNS
DMS 114 small cell lung = tested on: DMS 114 small cell lung
A498 renal = tested on: A498 renal
HOP-62 NSCLC = tested on: HOP-62 NSCLC
UO-31 renal = tested on: UO-31 renal
SF-268 CNS = tested on: SF-268 CNS
ACHN renal = tested on: ACHN renal
OVCAR-4 ovarian = tested on: OVCAR-4 ovarian
OVCAR-5 ovarian = tested on: OVCAR-5 ovarian
HCC-2998 colon = tested on: HCC-2998 colon
OVCAR-3 ovarian = tested on: OVCAR-3 ovarian
UACC-62 melanoma = tested on: UACC-62 melanoma
XF 498 CNS = tested on: XF 498 CNS
RPMI-8226 leukemia = tested on: RPMI-8226 leukemia
CAKI-1 renal = tested on: CAKI-1 renal
IGROV1 ovarian = tested on: IGROV1 ovarian
KM20L2 colon = tested on: KM20L2 colon
HOP-18 NSCLC = tested on: HOP-18 NSCLC
HL-60(TB) leukemia = tested on: HL-60(TB) leukemia
HCT-116 colon = tested on: HCT-116 colon
LOX IMVI melanoma = tested on: LOX IMVI melanoma
SK-MEL-2 melanoma = tested on: SK-MEL-2 melanoma
EKVX NSCLC = tested on: EKVX NSCLC

Work on CCCCCCC[C@@H](O)CC(=O)NC(CC(C)C)C(=O)NC(CCC(=O)O)C(=O)NC1C(=O)NC(C(C)C)C(=O)NC(CC(C)C)C(=O)NC(CO)C(=O)NC(CC(C)C)C(=O)NC(CO)C(=O)NC(C(C)CC)C(=O)OC1C (stereo not given in full) yielded a TGI (RXF 393 renal) of 26 µM, a TGI (SNB-19 CNS) of 16.6 µM and a TGI (MOLT-4 leukemia) of 39.9 µM. For the same compound, the TGI (M19-MEL melanoma) was 22.6 µM, the TGI (K-562 leukemia) was 30.9 µM and the TGI (U251 CNS) was 20.9 µM. The TGI (SNB-78 CNS) was 34.3 µM, the TGI (SK-MEL-28 melanoma) was 30.6 µM and the TGI (LXFL 529 NSCLC) was 25.8 µM. The TGI (NCI-H460 lung) was 11.3 µM, the TGI (NCI-H23 lung) was 29.9 µM and the TGI (SN12C renal) was 29.5 µM. For the same compound, the TGI (786-0 renal) was 27.9 µM, the TGI (SF-539 CNS) was 4.77 µM and the TGI (NCI-H522 lung) was 26.6 µM. The TGI (COLO 205 colon) was 2.93 µM, the TGI (HT29 colon) was 31 µM and the TGI (M14 melanoma) was 20.9 µM. It also gave a TGI (SW-620 colon) of 28.8 µM, a TGI (SK-MEL-5 melanoma) of 29.9 µM and a TGI (MALME-3M melanoma) of 17.6 µM. For the same compound, the TGI (SR leukemia) was 35.3 µM, the TGI (SK-OV-3 ovarian) was 34.4 µM and the TGI (DMS 273 small cell lung) was 28.1 µM. The TGI (KM12 colon) was 26.6 µM, the TGI (RXF-631 renal) was 28.8 µM and the TGI (DLD-1 colon) was 3.04 µM. The TGI (A549 NSCLC) was 36.1 µM, the TGI (HOP-92 NSCLC) was 18.7 µM and the TGI (TK-10 renal) was 28.9 µM. For the same compound, the TGI (SNB-75 CNS) was 18 µM, the TGI (HCT-15 colon) was 4.42 µM and the TGI (UACC-257 melanoma) was 29 µM. The TGI (NCI-H226 lung) was 34.2 µM, the TGI (OVCAR-8 ovarian) was 29.8 µM and the TGI (CCRF-CEM leukemia) was 25.8 µM. The TGI (SF-295 CNS) was 22.2 µM, the TGI (DMS 114 small cell lung) was 33.1 µM and the TGI (A498 renal) was 31.6 µM. It also gave a TGI (HOP-62 NSCLC) of 24.4 µM, a TGI (UO-31 renal) of 33.6 µM and a TGI (SF-268 CNS) of 30.5 µM. For the same compound, the TGI (ACHN renal) was 25.7 µM, the TGI (OVCAR-4 ovarian) was 34.4 µM and the TGI (OVCAR-5 ovarian) was 31.8 µM. For the same compound, the TGI (HCC-2998 colon) was 28.6 µM, the TGI (OVCAR-3 ovarian) was 31.1 µM and the TGI (UACC-62 melanoma) was 29.1 µM. For the same compound, the TGI (XF 498 CNS) was 15.2 µM, the TGI (RPMI-8226 leukemia) was 33.5 µM and the TGI (CAKI-1 renal) was 37.6 µM. It also gave a TGI (IGROV1 ovarian) of 31.6 µM, a TGI (KM20L2 colon) of 30.5 µM and a TGI (HOP-18 NSCLC) of 24.9 µM. It also gave a TGI (HL-60(TB) leukemia) of 37.2 µM, a TGI (HCT-116 colon) of 25.7 µM and a TGI (LOX IMVI melanoma) of 31.2 µM.
In the case of CC(=O)Oc1ccc(O)c2c1CCCC2, the TGI (RXF 393 renal) is reported as over 57.5 µM, the TGI (SNB-19 CNS) is reported as over 100 µM and the TGI (MOLT-4 leukemia) is reported as 43.5 µM. For the same compound, the TGI (M19-MEL melanoma) was 18.4 µM, the TGI (SK-MEL-2 melanoma) was over 100 µM and the TGI (K-562 leukemia) was 54.6 µM. For the same compound, the TGI (U251 CNS) was over 100 µM, the TGI (SNB-78 CNS) was 40.2 µM and the TGI (SK-MEL-28 melanoma) was over 100 µM. For the same compound, the TGI (LXFL 529 NSCLC) was 31.2 µM, the TGI (NCI-H460 lung) was over 31.6 µM and the TGI (NCI-H23 lung) was over 91.1 µM. The TGI (SN12C renal) was over 65.9 µM, the TGI (786-0 renal) was over 100 µM and the TGI (SF-539 CNS) was over 100 µM. For the same compound, the TGI (NCI-H522 lung) was 18.1 µM, the TGI (COLO 205 colon) was 55.6 µM and the TGI (HT29 colon) was over 100 µM. For the same compound, the TGI (M14 melanoma) was over 68.2 µM, the TGI (SW-620 colon) was 39.6 µM and the TGI (SK-MEL-5 melanoma) was over 63.3 µM. The TGI (MALME-3M melanoma) was over 61.2 µM, the TGI (SR leukemia) was 16.3 µM and the TGI (SK-OV-3 ovarian) was over 100 µM. For the same compound, the TGI (DMS 273 small cell lung) was over 64.1 µM, the TGI (KM12 colon) was over 100 µM and the TGI (RXF-631 renal) was over 100 µM. The TGI (DLD-1 colon) was 48.5 µM, the TGI (A549 NSCLC) was over 100 µM and the TGI (TK-10 renal) was 49.6 µM. For the same compound, the TGI (SNB-75 CNS) was over 100 µM, the TGI (HCT-15 colon) was 18.4 µM and the TGI (UACC-257 melanoma) was over 91.1 µM. It also gave a TGI (NCI-H226 lung) of over 100 µM, a TGI (OVCAR-8 ovarian) of 32.9 µM and a TGI (CCRF-CEM leukemia) of 47.6 µM. The TGI (SF-295 CNS) was over 100 µM, the TGI (DMS 114 small cell lung) was over 54 µM and the TGI (A498 renal) was over 31.6 µM. For the same compound, the TGI (HOP-62 NSCLC) was over 100 µM, the TGI (UO-31 renal) was over 64.5 µM and the TGI (SF-268 CNS) was over 100 µM. The TGI (ACHN renal) was 29.2 µM, the TGI (OVCAR-4 ovarian) was 33.2 µM and the TGI (EKVX NSCLC) was over 100 µM. For the same compound, the TGI (OVCAR-5 ovarian) was over 100 µM, the TGI (HCC-2998 colon) was over 100 µM and the TGI (OVCAR-3 ovarian) was 25.9 µM. The TGI (UACC-62 melanoma) was over 100 µM, the TGI (XF 498 CNS) was 30 µM and the TGI (RPMI-8226 leukemia) was 66.4 µM. For the same compound, the TGI (CAKI-1 renal) was over 73.4 µM, the TGI (IGROV1 ovarian) was over 100 µM and the TGI (KM20L2 colon) was over 100 µM. It also gave a TGI (HOP-18 NSCLC) of over 100 µM, a TGI (HL-60(TB) leukemia) of 14.1 µM and a TGI (HCT-116 colon) of 32.9 µM. For the same compound, the TGI (LOX IMVI melanoma) was 36.3 µM.
